Patent publication US20220153734A1, “Pyrazolopyridine Compounds For IRE1 Inhibition” (Optikira, LLC, priority 2019, published 2022)

Assays:
[1] = biological target: T1, IRE1α (Homo sapiens, UniProt O75460); experiment: Biochemical assay: inhibition of RNase activity of IRE1α; conditions: enzyme 0.325 nM, substrate 100 nM, 20 minutes
T1 construct: purchased Signal Chem E31-11G
Method: Biochemical Assay: Inhibition of RNase Activity of IRE1α
The RNase reactions were performed in 384 well black ProxiPlate-384 Plus plates (PERKIN Elmer) using 50 mM Tris assay buffer with 0.5 mM MgCl2, 10 mM KCl, 0.03% Tween, 2 mM DTT and 1% DMSO. Test compounds were prepared on the day of assay and dispensed using D300 digital dispenser as a 10-point ½ log dilution series in duplicate, normalized to a final DMSO concentration of […]. Test compounds were pre-incubated for 30 min at room temperature with IRE1α kinase (E31-11G from Signal Chem) in 2.5 μL of assay buffer. Then 2.5 μl of assay buffer containing substrate (5′ Alexa Fluor 647-rCrArU rGrUrC rCrGrC rArGrC rGrCrArUrG-Iowa Black RQ quencher 3′) added, giving a final concentration of enzyme of 0.325 nM and of substrate of 100 nM. After 20 minutes incubation at room temperature the reactions were stopped by added 5 μL of 5M urea, incubated at room temperature for 10 minutes and fluorescence measured on a plate reader (EnVision, PerkinElmer). IC50 values calculated by fitting a sigmoidal curve to percent inhibition of control versus compound concentration.

[2] = tested on: ARPE-19 cells stably expressing XBP1 (a.a. 1-376); experiment: Cellular XBP1 splicing assay (NanoLuc luciferase, thapsigargin); format: cell-based; conditions: thapsigargin 150 nM
Method: Cellular XBP1 Splicing Assay
ARPE-19 cells stably expressing XBP1 (a.a. 1-376) with nano-luciferase gene sequence linked so it is in frame when XBP1 is spliced, were cultured in F12 media, 10% FBS, 0.044% sodium bicarbonate, 150 μg/ml hygromycin B and seeded for assays at 5,000 cells in 384 well plates in culture media without hygromycin B and incubated at 37° C./5% CO2. After overnight incubation test compounds were added to the cell plate in a 10-point ½ log dilution series in duplicate (final DMSO concentration 0.117%). After further incubation of 30 minutes thapsigargin was added (final concentration 150 nM) and then another 4 hour incubation. A NanoLuc luciferase assay (Promega) was used according to the manufacturer's instructions to detect the luciferase and luminescence measured on a luminometer (EnVision, PerkinElmer). IC50 values calculated by fitting a sigmoidal curve to percent inhibition of control of compound concentration.

T1 sequence (O75460 468-977 limits assumed): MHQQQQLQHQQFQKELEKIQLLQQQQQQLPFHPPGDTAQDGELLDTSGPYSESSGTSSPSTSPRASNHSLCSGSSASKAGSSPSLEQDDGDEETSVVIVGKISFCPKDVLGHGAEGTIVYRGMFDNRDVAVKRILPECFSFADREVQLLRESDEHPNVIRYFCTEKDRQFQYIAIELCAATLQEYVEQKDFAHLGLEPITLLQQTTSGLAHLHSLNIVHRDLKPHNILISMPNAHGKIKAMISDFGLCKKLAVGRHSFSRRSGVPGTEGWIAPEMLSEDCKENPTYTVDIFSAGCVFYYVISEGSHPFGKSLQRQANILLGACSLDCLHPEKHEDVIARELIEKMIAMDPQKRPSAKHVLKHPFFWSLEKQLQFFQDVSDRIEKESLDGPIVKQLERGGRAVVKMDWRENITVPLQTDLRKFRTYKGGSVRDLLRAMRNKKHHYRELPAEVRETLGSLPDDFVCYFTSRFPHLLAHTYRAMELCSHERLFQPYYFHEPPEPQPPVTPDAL

## COCC(C)NC1CC=C(c2cnc(N)c3c(-c4ccc(NS(=O)(=O)Cc5ccccc5Cl)c(F)c4)nn(C(C)C)c23)CC1 (single isomer, unassigned) [Compound B4, N-(4-(4-amino-1-isopropyl-7-(4-((1-methoxypropan-2-yl)amino)cyclohex-1-en-1-yl)-1H-pyrazolo[4,3-c]pyridin-3-yl)-2-fluorophenyl)-1-(2-chlorophenyl)methanesulfonamide]
[1]
  IC50: 1.2 nM
[2]; Homo sapiens, ARPE-19, 4 h
  IC50: 6.8 nM

## COCC(C)NC1CC=C(c2cnc(N)c3c(-c4ccc(NS(=O)(=O)Cc5ccccc5Cl)c(F)c4)nn(C(C)C)c23)CC1 (single isomer, unassigned) [Compound B5, N-(4-(4-amino-1-isopropyl-7-(4-((1-methoxypropan-2-yl)amino)cyclohex-1-en-1-yl)-1H-pyrazolo[4,3-c]pyridin-3-yl)-2-fluorophenyl)-1-(2-chlorophenyl)methanesulfonamide]
[1]
  IC50: 1.2 nM
[2]; 4 hour
  IC50: 6.5 nM

## CC(C)n1nc(-c2cc(F)c(NS(=O)(=O)Cc3ccccc3Cl)cc2F)c2c(N)ncc(C3=CCC(NC4COC4)CC3)c21 (single isomer, unassigned) [Compound B7, N-(4-(4-amino-1-isopropyl-7-(4-(oxetan-3-ylamino)cyclohex-1-en-1-yl)-1H-pyrazolo[4,3-c]pyridin-3-yl)-2,5-difluorophenyl)-1-(2-chlorophenyl)methanesulfonamide]
[1]
  IC50: 21 nM
[2]; 4 hour
  IC50: 410 nM

## COc1ccc(Cl)c(S(=O)(=O)Nc2ccc(-c3nn(C(C)C)c4c(C5=CCC(NC6COC6)CC5)cnc(N)c34)cc2F)c1 (single isomer, unassigned) [Compound B8, N-(4-(4-amino-1-isopropyl-7-(4-(oxetan-3-ylamino)cyclohex-1-en-1-yl)-1H-pyrazolo[4,3-c]pyridin-3-yl)-2-fluorophenyl)-2-chloro-5-methoxybenzenesulfonamide]
[1]
  IC50: 6.7 nM
[2]; 4 hour
  IC50: 19 nM

## COc1ccc(Cl)c(S(=O)(=O)Nc2ccc(-c3nn(C(C)C)c4c(C5=CCC(NC6COC6)CC5)cnc(N)c34)cc2F)c1 (single isomer, unassigned) [Compound B9, N-(4-(4-amino-1-isopropyl-7-(4-(oxetan-3-ylamino)cyclohex-1-en-1-yl)-1H-pyrazolo[4,3-c]pyridin-3-yl)-2-fluorophenyl)-2-chloro-5-methoxybenzenesulfonamide]
[1]
  IC50: 70 nM
[2]; 4 hour
  IC50: 150 nM

## CC(C)n1nc(-c2cc(F)c(NS(=O)(=O)c3ccccc3Cl)cc2F)c2c(N)ncc(C3=CCC(NC4COC4)CC3)c21 (single isomer, unassigned) [Compound B11, N-(4-(4-amino-1-isopropyl-7-(4-(oxetan-3-ylamino)cyclohex-1-en-1-yl)-1H-pyrazolo[4,3-c]pyridin-3-yl)-2,5-difluorophenyl)-2-chlorobenzenesulfonamide]
[1]
  IC50: 34 nM
[2]; 4 hour
  IC50: 500 nM

## CC(C)n1nc(-c2ccc(NS(=O)(=O)Cc3ccccc3Cl)c(F)c2)c2c(N)ncc(C3=CCC(NC4COC4)CC3)c21 (single isomer, unassigned) [Compound B13, N-(4-(4-amino-1-isopropyl-7-(4-(oxetan-3-ylamino)cyclohex-1-en-1-yl)-1H-pyrazolo[4,3-c]pyridin-3-yl)-2-fluorophenyl)-1-(2-chlorophenyl)methanesulfonamide]
[1]
  IC50: 5.2 nM
[2]; 4 hour
  IC50: 90 nM

## CC(C)n1nc(-c2ccc(NS(=O)(=O)c3cc(Cl)ccc3F)c(F)c2)c2c(N)ncc(C3=CCC(NC4COC4)CC3)c21 (single isomer, unassigned) [Compound B14, N-(4-(4-amino-1-isopropyl-7-(4-(oxetan-3-ylamino)cyclohex-1-en-1-yl)-1H-pyrazolo[4,3-c]pyridin-3-yl)-2-fluorophenyl)-5-chloro-2-fluorobenzenesulfonamide]
[1]
  IC50: 6.8 nM
[2]; 4 hour
  IC50: 160 nM

## CC(C)n1nc(-c2ccc(NS(=O)(=O)c3cc(Cl)ccc3F)c(F)c2)c2c(N)ncc(C3=CCC(NC4COC4)CC3)c21 (single isomer, unassigned) [Compound B15, N-(4-(4-amino-1-isopropyl-7-(4-(oxetan-3-ylamino)cyclohex-1-en-1-yl)-1H-pyrazolo[4,3-c]pyridin-3-yl)-2-fluorophenyl)-5-chloro-2-fluorobenzenesulfonamide]
[1]
  IC50: 1.4 nM
[2]; 4 hour
  IC50: 24 nM

## Cc1ccc(F)c(S(=O)(=O)Nc2ccc(-c3nn(C(C)C)c4c(C5=CCC(NC6COC6)CC5)cnc(N)c34)cc2F)c1 (single isomer, unassigned) [Compound B16, N-(4-(4-amino-1-isopropyl-7-(4-(oxetan-3-ylamino)cyclohex-1-en-1-yl)-1H-pyrazolo[4,3-c]pyridin-3-yl)-2-fluorophenyl)-2-fluoro-5-methylbenzenesulfonamide]
[1]
  IC50: 13 nM
[2]; 4 hour
  IC50: 110 nM

## Cc1ccc(F)c(S(=O)(=O)Nc2ccc(-c3nn(C(C)C)c4c(C5=CCC(NC6COC6)CC5)cnc(N)c34)cc2F)c1 (single isomer, unassigned) [Compound B17, N-(4-(4-amino-1-isopropyl-7-(4-(oxetan-3-ylamino)cyclohex-1-en-1-yl)-1H-pyrazolo[4,3-c]pyridin-3-yl)-2-fluorophenyl)-2-fluoro-5-methylbenzenesulfonamide]
[1]
  IC50: 2.2 nM
[2]; 4 hour
  IC50: 21 nM

## Nc1ncc(C2=CCC(NC3COC3)CC2)c2c1c(-c1ccc(NS(=O)(=O)c3ccccc3Cl)c(F)c1)nn2C1CC1 (single isomer, unassigned) [Compound B18, N-(4-(4-amino-1-cyclopropyl-7-(4-(oxetan-3-ylamino)cyclohex-1-en-1-yl)-1H-pyrazolo[4,3-c]pyridin-3-yl)-2-fluorophenyl)-2-chlorobenzenesulfonamide]
[1]
  IC50: 9.9 nM
[2]; 4 hour
  IC50: 82 nM

## Nc1ncc(C2=CCC(NC3COC3)CC2)c2c1c(-c1ccc(NS(=O)(=O)c3ccccc3Cl)c(F)c1)nn2C1CC1 (single isomer, unassigned) [Compound B19, N-(4-(4-amino-1-cyclopropyl-7-(4-(oxetan-3-ylamino)cyclohex-1-en-1-yl)-1H-pyrazolo[4,3-c]pyridin-3-yl)-2-fluorophenyl)-2-chlorobenzenesulfonamide]
[1]
  IC50: 3.5 nM
[2]; 4 hour
  IC50: 20 nM

## Nc1ncc(C2=CCC(NC3COC3)CC2)c2c1c(-c1ccc(NS(=O)(=O)Cc3ccccc3Cl)c(F)c1)nn2C1CC1 (single isomer, unassigned) [Compound B22, N-(4-(4-amino-1-cyclopropyl-7-(4-(oxetan-3-ylamino)cyclohex-1-en-1-yl)-1H-pyrazolo[4,3-c]pyridin-3-yl)-2-fluorophenyl)-1-(2-chlorophenyl)methanesulfonamide]
[1]
  IC50: 0.9 nM
[2]; 4 hour
  IC50: 10 nM

## Nc1ncc(C2=CCC(NC3COC3)CC2)c2c1c(-c1ccc(NS(=O)(=O)Cc3ccccc3Cl)c(F)c1)nn2C1CC1 (single isomer, unassigned) [Compound B23, N-(4-(4-amino-1-cyclopropyl-7-(4-(oxetan-3-ylamino)cyclohex-1-en-1-yl)-1H-pyrazolo[4,3-c]pyridin-3-yl)-2-fluorophenyl)-1-(2-chlorophenyl)methanesulfonamide]
[1]
  IC50: 3.1 nM
[2]; 4 hour
  IC50: 46 nM

## CCn1nc(-c2ccc(NS(=O)(=O)Cc3ccccc3Cl)cc2)c2c(N)ncc(C3=CCC(NC4COC4)CC3)c21 (single isomer, unassigned) [Compound B24, N-(4-(4-amino-1-ethyl-7-(4-(oxetan-3-ylamino)cyclohex-1-en-1-yl)-1H-pyrazolo[4,3-c]pyridin-3-yl)phenyl)-1-(2-chlorophenyl)methanesulfonamide]
[1]
  IC50: 53 nM
[2]; 4 hour
  IC50: 580 nM

## CCn1nc(-c2ccc(NS(=O)(=O)Cc3ccccc3F)c(F)c2)c2c(N)ncc(C3=CCC(NC4COC4)CC3)c21 (single isomer, unassigned) [Compound B27, N-(4-(4-amino-1-ethyl-7-(4-(oxetan-3-ylamino)cyclohex-1-en-1-yl)-1H-pyrazolo[4,3-c]pyridin-3-yl)-2-fluorophenyl)-1-(2-fluorophenyl)methanesulfonamide]
[1]
  IC50: 5.9 nM
[2]; 4 hour
  IC50: 78 nM

## CCn1nc(-c2ccc(NS(=O)(=O)Cc3ccccc3Cl)c(F)c2)c2c(N)ncc(C3=CCC(NC4COC4)CC3)c21 (single isomer, unassigned) [Compound B29, N-(4-(4-amino-1-ethyl-7-(4-(oxetan-3-ylamino)cyclohex-1-en-1-yl)-1H-pyrazolo[4,3-c]pyridin-3-yl)-2-fluorophenyl)-1-(2-chlorophenyl)methanesulfonamide]
[1]
  IC50: 7.4 nM
[2]; 4 hour
  IC50: 68 nM
